From patent US11660326B2, “Bacterial-binding peptides for treatment of infectious diseases and related inflammatory processes” (priority 2018, dated 2023)

Legend:
[1] = tested on: mice undergoing CLP-induced septic shock; experiment: Plasma cytokine levels following CLP-induced sepsis; format: in vivo, C57BL/6J mice; details: 20 h post CLP; 6 mg/kg i.v. at +1 h; vs saline-treated group
Procedure: (§1) FIG. 9. Therapeutic effect of CD6.PD3 infusion on cytokine and bacterial load levels following CLP-induced sepsis. (A) C57BL/6J mice were i.v. infused at +1 h post CLP with saline (n=7) or CD6.PD3 peptide (6 mg/kg; n=9), and cytokine plasma levels were monitored by ELISA at different time points (4 h and 20 h) thereafter. Data are expressed as mean±SD. (B) Same mouse groups as in (A) were monitored for blood and spleen bacterial load at 20 h following CLP induction. Data are expressed as mean±SD of CFU/mg (spleen) or CFU/μL (blood). In all cases, statistical differences were evaluated using a 2-tailed Student t-test (*, P<0.05).
Animal procedures were approved by the Animal Experimentation Ethical Committee, University of Barcelona. High-grade mortality (≥90% mortality within the first 48-72 h) CLP-induced septic shock was induced in 8-10 week old C57BL/6J male mice (20-25 g; Charles River) as previously reported (Martinez-Florensa M, et al., 2017, Protective Effects of Human and Mouse Soluble Scavenger-Like CD6 Lymphocyte Receptor in a Lethal Model of Polymicrobial Sepsis, Antimicrob Agents Chemother 61:e01391-16).

[2] = tested on: mouse splenocytes exposed to LPS; experiment: LPS-induced cytokine release by mouse splenocytes; format: cell-based, C57BL/6 mice; details: LPS 0.5 μg/mL, 48 h, peptide 0.5, 5 and 20 μg/mL
Procedure: FIG. 6. Effect of CD6-derived peptides on in vitro LIPS-induced cytokine release by mouse splenocytes. Total spleen cell suspensions (2×10^5) from C57BL/6 mice (n=7) were stimulated in triplicate for 48 h with LPS (0.5 μg/mL), in the presence or absence of increasing concentrations (0.5, 5, and 20 μg/mL) of CD6-derived peptides (PD1, PD2, PD3, and Pcons). Cytokine levels in culture supernatants were determined by ELISA and results expressed in pg/mL as mean±SD of triplicates. Viability was >75% at 48 h in all experimental conditions. Statistical analysis was performed using a 2-tailed Mann-Whitney test, with confidence intervals of 95% (*, P<0.05; **, P<0.01; ***, P<0.001).
Spleens from 6-8 week old C57BL/6 mice (Charles River) were disaggregated by filtering through a cell strainer and, after erythrocyte lysis, cells were resuspended in RPMI 1640 with L-glutamine (Lonza) plus 10% fetal calf serum (BioWest), 100 U/mL penicillin, 100 μg/mL streptomycin and 50 μM 2-(3 Mercaptoethanol (Merck). Cells (2×10^5) were stimulated for 48 h (at 37° C. in a humidified atmosphere with 5% CO2) in U-bottomed 96-well plates (Biofil) containing LPS (0.5 μg/mL; E. coli O111:B4), in the presence or absence of increasing peptides (0.5-20 μg/mL). Culture supernatants were harvested and mouse cytokines measured by ELISA following manufacturer's instructions (BD Biosciences OptEIA sets).

[3] = tested on: mice undergoing CLP-induced septic shock; experiment: Blood and spleen bacterial load following CLP-induced sepsis; format: in vivo, C57BL/6J mice; details: 20 h post CLP; 6 mg/kg i.v. at +1 h; vs saline control group
Procedure: as §1
For the assessment of bacterial load, blood and spleen samples from CLP-treated mice were collected, homogenized and diluted aseptically in sterile PBS. Serial dilutions were plated overnight on agar with 5% sheep blood (Becton Dickinson) at 37° C. Viable bacterial counts were expressed as CFU/mL (blood) or per mg (spleen).

## GQVEVHFRGVW (CD6.PD3)
[1]
  IL-1β level: significant lower levels
  IL-6 level: significant lower levels
  TNF-α level: significant lower levels
[2]
  IL-1β release: dose-dependent inhibitory effects
  IL-6 release: dose-dependent inhibitory effects
  IL-10 release: non-statistically significant dose-dependent increased release
[3]
  CFU isolated from blood: lower CFU
  CFU isolated from spleen: lower CFU
